From patent US10472347B2, “Aminopyrazine compounds with A2A antagonist properties” (Merck Sharp & Dohme Corp., priority 2014, dated 2019)

Target: T1, human A2a receptor (Homo sapiens, UniProt P29274)
T1 construct: purchased Perkin-Elmer RBHA2AM400UA; host or cells: HEK293 cells (membranes)
Assay: A2a competition binding assay, Scintillation Proximity technology
Settings: membranes from HEK293 cells expressing human A2a receptor; Ki by Cheng-Prusoff equation
Outline: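 SPA competition: 0.5 nM tritiated pyrazolotriazolopyrimidine ligand displaced by compound at 3000 to 0.15 nM, 1 h room temperature, human A2a HEK293 membranes pretreated with adenosine deaminase, PBS/10 mM MgCl2 buffer. CGS15943 1 μM defined non-specific binding; EC50 converted to Ki via Cheng-Prusoff.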

T1 sequence (P29274 whole entry): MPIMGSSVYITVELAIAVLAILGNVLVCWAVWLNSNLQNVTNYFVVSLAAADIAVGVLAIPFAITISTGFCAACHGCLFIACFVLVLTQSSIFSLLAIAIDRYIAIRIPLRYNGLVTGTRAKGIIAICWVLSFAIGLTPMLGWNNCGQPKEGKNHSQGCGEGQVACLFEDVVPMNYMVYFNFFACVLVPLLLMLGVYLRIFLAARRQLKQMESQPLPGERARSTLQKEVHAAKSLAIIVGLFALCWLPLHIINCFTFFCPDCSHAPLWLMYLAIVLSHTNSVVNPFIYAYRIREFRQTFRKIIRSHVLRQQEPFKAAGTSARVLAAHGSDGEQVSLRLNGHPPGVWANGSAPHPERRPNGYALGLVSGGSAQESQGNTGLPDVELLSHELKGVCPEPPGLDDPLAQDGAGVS

Compound	Ki [µM]
Cc1cnn(-c2nc(N)c(C(=O)NCc3ccccc3)nc2Cl)c1 [Ex-358, 3-amino-N-benzyl-6-chloro-5-(4-methyl-1H-pyrazol-1-yl)pyrazine-2-carboxamide]	0.0733
Cc1cnn(-c2nc(N)c(C(=O)NCc3cn4ccsc4n3)nc2Cl)c1 [Ex-359, 3-amino-6-chloro-N-(imidazo[2,1-b][1,3]thiazol-6-ylmethyl)-5-(4-methyl-1H-pyrazol-1-yl)pyrazine-2-carboxamide]	0.09
Cc1cnn(-c2nc(N)c(C(=O)NCc3cnc4ccccn34)nc2Cl)c1 [Ex-360, 3-amino-6-chloro-N-(imidazo[1,2-a]pyridin-3-ylmethyl)-5-(4-methyl-1H-pyrazol-1-yl)pyrazine-2-carboxamide]	0.615
Cc1cnn(-c2nc(N)c(C(=O)NCc3cncc4ccccc34)nc2Cl)c1 [Ex-361, 3-amino-6-chloro-N-(isoquinolin-4-ylmethyl)-5-(4-methyl-1H-pyrazol-1-yl)pyrazine-2-carboxamide]	0.0632
Cc1cnn(-c2nc(N)c(C(=O)NCc3cnn4ccccc34)nc2Cl)c1 [Ex-362, 3-amino-6-chloro-5-(4-methyl-1H-pyrazol-1-yl)-N-(pyrazolo[1,5-a]pyridin-3-ylmethyl)pyrazine-2-carboxamide]	0.143
Cc1cccnc1CNC(=O)c1nc(C)c(-c2nc(C(F)(F)F)co2)nc1N [Ex-379, 3-amino-6-methyl-N-[(3-methylpyridin-2-yl)methyl]-5-[4-(trifluoromethyl)-1,3-oxazol-2-yl]pyrazine-2-carboxamide]	1.49
Cc1cccnc1CNC(=O)c1nc(C)c(-c2nc(C)c(C)o2)nc1N [Ex-381, 3-amino-5-(4,5-dimethyl-1,3-oxazol-2-yl)-6-methyl-N-[(3-methylpyridin-2-yl)methyl]pyrazine-2-carboxamide]	0.0805
COCc1coc(-c2nc(N)c(C(=O)NCc3ncccc3C)nc2C)n1 [Ex-382, 3-amino-5-[4-(methoxymethyl)-1,3-oxazol-2-yl]-6-methyl-N-[(3-methylpyridin-2-yl)methyl]pyrazine-2-carboxamide]	0.0384
Cc1cnc(-c2nc(N)c(C(=O)NCc3ncccc3C)nc2C)o1 [Ex-383, 3-amino-6-methyl-5-(5-methyl-1,3-oxazol-2-yl)-N-[(3-methylpyridin-2-yl)methyl]pyrazine-2-carboxamide]	0.0064
Cc1cccnc1CNC(=O)c1nc(C)c(-c2ncc(C(F)(F)F)o2)nc1N [Ex-384, 3-amino-6-methyl-N-[(3-methylpyridin-2-yl)methyl]-5-[5-(trifluoromethyl)-1,3-oxazol-2-yl]pyrazine-2-carboxamide]	0.0637

The next compounds have a lower Ki than those just listed; values first:

Ki [µM]	Compound
0.0005	Cc1cnn(-c2nc(N)c(C(=O)NCc3cccc4c3C(=O)NC4)nc2Cl)c1 [Ex-363, 3-amino-6-chloro-5-(4-methyl-1H-pyrazol-1-yl)-N-[(3-oxo-2,3-dihydro-1H-isoindol-4-yl)methyl]pyrazine-2-carboxamide]
0.000384	Cc1coc(-c2nc(N)c(C(=O)NCc3ncccc3C)nc2C)n1 [Ex-380, 3-amino-6-methyl-5-(4-methyl-1,3-oxazol-2-yl)-N-[(3-methylpyridin-2-yl)methyl]pyrazine-2-carboxamide]
0.0006	N#Cc1nc(C(=O)NCc2cccc3cccnc23)c(N)nc1-n1cccn1 [Ex-385, 3-amino-6-cyano-5-(1H-pyrazol-1-yl)-N-(quinolin-8-ylmethyl)pyrazine-2-carboxamide]
0.0003	N#Cc1nc(C(=O)NCc2ncccc2C(F)(F)F)c(N)nc1-c1ncco1 [Ex-386, 3-amino-6-cyano-5-(1,3-oxazol-2-yl)-N-{[3-(trifluoromethyl)pyridin-2-yl]methyl}pyrazine-2-carboxamide]
0.0028	Cc1cnn(-c2nc(N)c(C(=O)NCc3cccc4cccnc34)nc2C(F)F)c1 [Ex-387, 3-amino-6-(difluoromethyl)-5-(4-methyl-1H-pyrazol-1-yl)-N-(quinolin-8-ylmethyl)pyrazine-2-carboxamide]
0.0025	Nc1nc(-n2nccn2)c(CO)nc1C(=O)NCc1cccc2cccnc12 [Ex-388, 3-amino-6-(hydroxymethyl)-N-(quinolin-8-ylmethyl)-5-(2H-1,2,3-triazol-2-yl)pyrazine-2-carboxamide]
